According to publication PMC10066365, “Nemacol is a small molecule inhibitor of C. elegans vesicular acetylcholine transporter with anthelmintic potential” (Nature Communications, 2023):
Values joined by “and” are separate entries in the source; they are usually repeats but may differ in a detail not shown here. Equal entries are not always repeated.

Key:
[1] = system: Pristionchus pacificus; assay: Pristionchus pacificus motor disruption dose-response on solid media, 1 h; details: for mean % any phene (coiled, jerky-Unc or paralyzed): Pristionchus pacificus young adults; for mean % any phene (coiled, jerky-Unc or paralyzed) / mean % any phene: mean of three biological replicates; for EC50: Pristionchus pacificus, 1 h, read-out: P. pacificus motor disruption EC50; for mean % any phene: any phenotype (coiled, jerky-Unc or paralyzed) at one hour; for rep 1 atypical locomotion / rep 1 coiled / rep 1 no phene / rep 1 paralyzed / rep 2 atypical locomotion / rep 2 coiled / rep 2 no phene / rep 2 paralyzed / rep 3 atypical locomotion / rep 3 coiled / rep 3 no phene / rep 3 paralyzed: count of 20 animals per trial, one hour
Description: Locomotor phenotype analyses were done in 24-well plates with 1 mL of MYOB substrate (27.5 g Trizma HCl, 12 g Trizma Base, 230 g bacto tryptone, 10 g NaCl, 0.4 g cholesterol (95%)) seeded with 25 µL of OP50 Escherichia coli on each well. Each compound was added to the MYOB substrate before pouring to achieve the desired final concentrations of 30 µM or 60 µM after diffusion through the media. Synchronized young adult worms are transferred into each well using a platinum wire pick. A Leica MZ75 stereomicroscope was used to visualize the movement of worms on the solid substrate. The specific dominant locomotor phenotype (i.e. ‘Punc’, ‘paralyzed’, ‘coiler’ or ‘wild-type locomotion’) was scored after the touch on the head with a platinum wire over a ~3–5 s of observation. […] Coiled animals were not scored as paralyzed despite sometimes not responding to light touch.

[2] = system: Dirofilaria immitis L3/L4; assay: Dirofilaria immitis L3/L4 motility assay (DiroImager, 72 h); details: Dirofilaria immitis L4
[3] = system: Dirofilaria immitis microfilariae; assay: Dirofilaria immitis microfilariae immobility assay (DiroImager, 72 h); details: for % effect (motility), DIROIM MF: Dirofilaria immitis microfilariae
Description: We conducted experiments with the Missouri isolate of Dirofilaria immitis in two labs. In the first set of experiments, shown as part of Fig. 3c, D. immitis microfilariae and larval stage 3 (L3) worms were assayed in the laboratories of Bayer Animal Health GmbH (Monheim, Germany). For microfilariae immobility assays, approximately 250 freshly purified microfilariae were cultured in single wells of a 96-well microtiter plate containing supplemented RPMI 1640 medium[68],[69]. […] Microfilariae exposed to medium substituted with 1% DMSO were used as negative controls. Motility of microfilariae was evaluated after 72 h of drug exposure using an image-based approach—DiroImager, developed by Bayer Technology Services. As described in detail in refs. [68],[69], the DiroImager is an automated high-throughput platform that allows for high-resolution optical imaging of an entire 96-well microtiter plate.

[4] = system: C. elegans; assay: C. elegans motor phenotype scoring on solid media (Punc/jerky-unc, coiled, paralyzed), wild-type young adults; type: in vivo, Caenorhabditis elegans; details: for any phene (mean % fraction of young adults exhibiting any phenotype: coiled, jerky-Unc or paralyzed) / atypical locomotion (number of animals) / coiled (number of animals) / no phene (number of animals) / paralyzed (number of animals) / any phene: mean % fraction of young adults exhibiting any phenotype (coiled, jerky-Unc or paralyzed): one hour; for any phene (mean % fraction of young adults exhibiting any phenotype: coiled, jerky-Unc or paralyzed) / any phene: mean % fraction of young adults exhibiting any phenotype (coiled, jerky-Unc or paralyzed): mean of three biological replicates; for EC50: Caenorhabditis elegans, any motor phenotype after 1 h on solid media, ± 95% CI, read-out: C. elegans - motor disruption EC50; for atypical locomotion (number of animals) / coiled (number of animals) / no phene (number of animals) / paralyzed (number of animals): young adults, 20 animals per trial, single technical replicate
[5] = conc 3.75, observed at one hour

Cc1cc(N2CCN(CC3CCCCC3)CC2)ccc1[N+](=O)[O-] [Nemacol-25, 1-(cyclohexylmethyl)−4-(3-methyl-4-nitrophenyl)piperazine]
mean % any phene (coiled, jerky-Unc or paralyzed) [1, 5]: 0.8333% | mean % any phene (coiled, jerky-Unc or paralyzed) ([1]; conc 15, observed at one hour): 6.667% | mean % any phene (coiled, jerky-Unc or paralyzed) ([1]; conc 60, observed at one hour): 29.1667% | EC50 [1]: > 60 µM | % effect (motility), DIROIM L4 ([2]; 2 µM): 0% | % effect (motility), DIROIM L4 ([2]; 10 µM): 11% | % effect (motility), DIROIM L4 ([2]; 50 µM): 100% | % effect (motility), DIROIM MF ([3]; 0.016 µM): 0% | % effect (motility), DIROIM MF ([3]; 0.08 µM): 0% | % effect (motility), DIROIM MF ([3]; 0.4 µM): 0% | % effect (motility), DIROIM MF ([3]; 2 µM): 40% | % effect (motility), DIROIM MF ([3]; 10 µM): 60% | EC50 ([3]; Dirofilaria immitis, 72 h, read-out: Dirofilaria immitis filariae EC50): 5.11 µM | any phene (mean % fraction of young adults exhibiting any phenotype: coiled, jerky-Unc or paralyzed) ([4]; 3.75uM, third c14 line of each analog): 2.5% | any phene (mean % fraction of young adults exhibiting any phenotype: coiled, jerky-Unc or paralyzed) ([4]; 15uM, second c14 line of each analog): 20.8333% | any phene (mean % fraction of young adults exhibiting any phenotype: coiled, jerky-Unc or paralyzed) ([4]; 60uM, first c14 line of each analog): 62.5% | EC50 [4]: 41 ± 26.8 µM

c1cc(N2CCN(CC3CCC3)CC2)ccn1 [Nemacol-60]
mean % any phene ([1]; conc 3.75): 0% | rep 1 atypical locomotion ([1]; conc 3.75): 0 | rep 1 coiled ([1]; conc 3.75): 0 | rep 1 no phene ([1]; conc 3.75): 20 | rep 1 paralyzed ([1]; conc 3.75): 0 | rep 2 atypical locomotion ([1]; conc 3.75): 0 | rep 2 coiled ([1]; conc 3.75): 0 | rep 2 no phene ([1]; conc 3.75): 20 | rep 2 paralyzed ([1]; conc 3.75): 0 | rep 3 atypical locomotion ([1]; conc 3.75): 0 | rep 3 coiled ([1]; conc 3.75): 0 | rep 3 no phene ([1]; conc 3.75): 20 | rep 3 paralyzed ([1]; conc 3.75): 0 | mean % any phene ([1]; conc 15): 0% | rep 1 atypical locomotion ([1]; conc 15): 0 | rep 1 coiled ([1]; conc 15): 0 | rep 1 no phene ([1]; conc 15): 20 | rep 1 paralyzed ([1]; conc 15): 0 | rep 2 atypical locomotion ([1]; conc 15): 0 | rep 2 coiled ([1]; conc 15): 0 | rep 2 no phene ([1]; conc 15): 20 | rep 2 paralyzed ([1]; conc 15): 0 | rep 3 atypical locomotion ([1]; conc 15): 0 | rep 3 coiled ([1]; conc 15): 0 | rep 3 no phene ([1]; conc 15): 20 | rep 3 paralyzed ([1]; conc 15): 0 | mean % any phene ([1]; conc 60): 0% | rep 1 atypical locomotion ([1]; conc 60): 0 | rep 1 coiled ([1]; conc 60): 0 | rep 1 no phene ([1]; conc 60): 20 | rep 1 paralyzed ([1]; conc 60): 0 | rep 2 atypical locomotion ([1]; conc 60): 0 | rep 2 coiled ([1]; conc 60): 0 | rep 2 no phene ([1]; conc 60): 20 | rep 2 paralyzed ([1]; conc 60): 0 | rep 3 atypical locomotion ([1]; conc 60): 0 | rep 3 coiled ([1]; conc 60): 0 | rep 3 no phene ([1]; conc 60): 20 | rep 3 paralyzed ([1]; conc 60): 0 | % effect (motility), DIROIM L4 ([2]; 10 µM): 0% | % effect (motility), DIROIM L4 ([2]; 50 µM): 10% | % effect (motility), DIROIM MF ([3]; 0.016 µM): 0% | % effect (motility), DIROIM MF ([3]; 0.08 µM): 0% | % effect (motility), DIROIM MF ([3]; 0.4 µM): 0% | % effect (motility), DIROIM MF ([3]; 2 µM): 0% | % effect (motility), DIROIM MF ([3]; 10 µM): 0% | atypical locomotion (number of animals) ([4]; 3.75uM): 0 and 2 and 3 | coiled (number of animals) ([4]; 3.75uM): 0 | no phene (number of animals) ([4]; 3.75uM): 20 and 18 and 17 | paralyzed (number of animals) ([4]; 3.75uM): 0 | any phene: mean % fraction of young adults exhibiting any phenotype (coiled, jerky-Unc or paralyzed) ([4]; 3.75uM): 4.167% | atypical locomotion (number of animals) ([4]; 15uM): 0 and 10 and 15 | coiled (number of animals) ([4]; 15uM): 0 | no phene (number of animals) ([4]; 15uM): 20 and 9 and 5 | paralyzed (number of animals) ([4]; 15uM): 0 and 1 | any phene: mean % fraction of young adults exhibiting any phenotype (coiled, jerky-Unc or paralyzed) ([4]; 15uM): 21.6667% | atypical locomotion (number of animals) ([4]; 60uM): 0 and 2 and 4 and 16 and 14 | coiled (number of animals) ([4]; 60uM): 0 | no phene (number of animals) ([4]; 60uM): 20 and 18 and 16 and 4 and 6 | paralyzed (number of animals) ([4]; 60uM): 0 | any phene: mean % fraction of young adults exhibiting any phenotype (coiled, jerky-Unc or paralyzed) ([4]; 60uM): 30% | EC50 [4]: > 60 µM

FC(F)(F)c1cccc(N2CCN(C3CCCCCC3)CC2)c1 [Nemacol-52]
mean % any phene (coiled, jerky-Unc or paralyzed) [1, 5]: 5% | mean % any phene (coiled, jerky-Unc or paralyzed) ([1]; conc 15, observed at one hour): 21.6667% | mean % any phene (coiled, jerky-Unc or paralyzed) ([1]; conc 60, observed at one hour): 97.5% | EC50 [1]: 21.7 ± 3.7 µM | % effect (motility), DIROIM L4 ([2]; 2 µM): 0% | % effect (motility), DIROIM L4 ([2]; 10 µM): 0% | % effect (motility), DIROIM L4 ([2]; 50 µM): 15% | % effect (motility), DIROIM MF ([3]; 0.016 µM): 0% | % effect (motility), DIROIM MF ([3]; 0.08 µM): 0% | % effect (motility), DIROIM MF ([3]; 0.4 µM): 0% | % effect (motility), DIROIM MF ([3]; 2 µM): 0% | % effect (motility), DIROIM MF ([3]; 10 µM): 0% | atypical locomotion (number of animals) ([4]; 3.75uM): 14 and 12 and 10 and 8 and 15 | coiled (number of animals) ([4]; 3.75uM): 0 | no phene (number of animals) ([4]; 3.75uM): 4 and 6 and 10 and 12 and 5 | paralyzed (number of animals) ([4]; 3.75uM): 2 and 0 | any phene: mean % fraction of young adults exhibiting any phenotype (coiled, jerky-Unc or paralyzed) ([4]; 3.75uM): 64.1667% | atypical locomotion (number of animals) ([4]; 15uM): 12 and 7 and 8 and 10 and 13 and 9 | coiled (number of animals) ([4]; 15uM): 0 and 7 and 4 and 5 | no phene (number of animals) ([4]; 15uM): 0 | paralyzed (number of animals) ([4]; 15uM): 8 and 13 and 5 and 6 and 2 and 7 | any phene: mean % fraction of young adults exhibiting any phenotype (coiled, jerky-Unc or paralyzed) ([4]; 15uM): 100% | atypical locomotion (number of animals) ([4]; 60uM): 12 and 8 and 7 and 6 and 13 | coiled (number of animals) ([4]; 60uM): 0 and 1 | no phene (number of animals) ([4]; 60uM): 0 | paralyzed (number of animals) ([4]; 60uM): 8 and 12 and 13 and 7 | any phene: mean % fraction of young adults exhibiting any phenotype (coiled, jerky-Unc or paralyzed) ([4]; 60uM): 100% | EC50 [4]: 3.6 µM
